Like-named read-outs stand apart in the source and are kept apart here.
How the values were obtained:
[1] = target: T1, OX1R in rat brain (tenia tecta) (Rattus norvegicus, UniProt P56718); test: Ex vivo OX1R receptor occupancy autoradiography in rat brain (tenia tecta), with plasma bioanalysis
T1 construct: Twenty micron thick tissue sections at the level of the tenia tecta were prepared for autoradiography; from tissue; host or cells: brain sections (tenia tecta) of male Sprague-Dawley rats
T1 sequence (P56718 1-416): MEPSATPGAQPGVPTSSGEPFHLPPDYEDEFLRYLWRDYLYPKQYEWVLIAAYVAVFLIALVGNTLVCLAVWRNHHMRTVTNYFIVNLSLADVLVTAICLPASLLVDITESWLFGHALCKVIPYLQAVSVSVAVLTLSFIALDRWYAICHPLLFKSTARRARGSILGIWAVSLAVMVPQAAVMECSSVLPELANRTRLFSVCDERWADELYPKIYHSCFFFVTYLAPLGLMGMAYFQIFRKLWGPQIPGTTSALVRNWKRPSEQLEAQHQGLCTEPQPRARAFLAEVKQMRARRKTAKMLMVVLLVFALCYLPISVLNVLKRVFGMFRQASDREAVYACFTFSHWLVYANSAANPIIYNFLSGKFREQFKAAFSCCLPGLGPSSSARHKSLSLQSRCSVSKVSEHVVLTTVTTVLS
Procedure: (§1) Experiments were performed as previously described ([Dugovic et al., 2009]) in male Sprague-Dawley rats (300–400 g, Charles River Laboratories, San Diego, CA, United States). The animals were euthanized using carbon dioxide and decapitated at different time points after drug administration (n = 3 per time point or dose regimen). Brains were rapidly frozen on powdered dry ice and stored at -80°C before sectioning. Plasma samples were also collected for bioanalysis (LC–MS/MS). Twenty micron thick tissue sections at the level of the tenia tecta were prepared for autoradiography. OX1R radioligand binding autoradiography was determined at room temperature with 5 nM [^3H]SB-674042. Sections were incubated for 10 min to minimize dissociation. Non-specific binding was determined in the presence of 10 μM SB-674042. Ex vivo receptor labeling was expressed as the percentage of receptor labeling in corresponding brain areas (i.e., tenia tecta) of vehicle-treated animals. The percentage of receptor occupancy was plotted against time or dosage using GraphPad Prism (GraphPad Software, San Diego, CA, United States). Percentage of receptor occupancy was also plotted against drug plasma or brain concentration. Pharmacokinetic parameters were analyzed using a non-compartmental model using the software package WinNonlin Version 4.0.1 (Pharsight, Palo Alto, CA, United States).
(§2) In vivo occupancy of the OX1R was assessed by ex vivo receptor binding autoradiography of [^3H]SB-674042 in rat brain tissue sections at the level of the tenia tecta. Time-dependency and dose-dependency were assessed after oral dosing (Figure 2).

[2] = as above; conditions: male, Sprague-Dawley, plasma
Procedure: as §1, §2

human OX1R = target: T2, human OX1R (Homo sapiens, UniProt O43613); test: Calcium mobilization functional assay, CHO-K1 cells, OX-A EC80
T2 sequence (O43613 1-425): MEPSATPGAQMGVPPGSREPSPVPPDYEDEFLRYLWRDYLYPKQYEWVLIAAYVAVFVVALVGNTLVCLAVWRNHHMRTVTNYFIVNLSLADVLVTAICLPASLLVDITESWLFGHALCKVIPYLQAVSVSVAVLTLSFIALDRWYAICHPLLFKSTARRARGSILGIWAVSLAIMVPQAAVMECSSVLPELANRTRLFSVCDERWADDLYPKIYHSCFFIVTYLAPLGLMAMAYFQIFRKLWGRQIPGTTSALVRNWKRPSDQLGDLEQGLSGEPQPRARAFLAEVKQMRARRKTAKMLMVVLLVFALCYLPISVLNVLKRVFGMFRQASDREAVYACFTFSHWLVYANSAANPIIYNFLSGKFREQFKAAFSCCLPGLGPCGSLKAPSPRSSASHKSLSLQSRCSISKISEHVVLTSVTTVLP
Procedure: Stably transfected CHO-K1 cells for the human OX1R or HEK-293 cells for the rat OX1R were used for the in vitro functional assays. […] Since the intracellular calcium response is transient and not consistent with equilibrium assumptions, the assays were performed by giving a standard, EC80 dose of the OX agonist and calculating a pKB from inhibition of the agonist response by a dose range of the antagonists. The cells were plated in black 96 well tissue culture plates with clear bottoms at 50,000 cells/well and grown overnight at 37°C in 5% carbon dioxide (CO2). […] The cell plate was then transferred to the Molecular Devices Fluorometric Imaging Plate Reader (FLIPR) Tetra instrument, which adds the OX agonist and monitors changes in fluorescence which reflect intracellular calcium levels.
Results were calculated using GraphPad Prism (San Diego, CA, United States) software. Raw data from the FLIPR Tetra was exported as the difference between maximum and minimum fluorescence observed for each well. A non-linear regression was used to determine the agonist EC50 and antagonist IC50 for each plate, then the antagonist KB was calculated according to Cheng and Prusoff ([Cheng and Prusoff, 1973]).

Sprague-Dawley rats = test: Normoxic 20% CO2 panic provocation model
Procedure: Experiments were performed in male Sprague-Dawley rats (300–350 g, Harlan Laboratory, Indianapolis, IN, United States). […] Following exposure to hypercarbic and atmospheric air gasses, rats were immediately placed in the open-field box for a 5 min period then assessed in SI test for 5 min. The data reported are changes in activity, expressed in 1 min bins, relative to the average of the baseline measurement (t-5 to t-1 minute) from each rat.
Each dependent variable for assessment of behavior and radiotelemetry data was respectively analyzed using a one way ANOVA, or a one way ANOVA with repeated measures with drug treatment as the main factor and time as repeated measures. In the presence of significant main effects post hoc tests were conducted using a parametric Fisher’s LSD test. Within subjects time effects were also assessed using a Dunnett’s one way analysis with the minute prior to the i.v infusion used as the control. Statistical significance was accepted with p < 0.05. All statistical analyses were carried out using SPSS 13.0 (SPSS, Inc., Chicago, IL, United States) and all graphs were generated using SigmaPlot 2001 (SPSS, Inc., Chicago, IL, United States) or Graphpad Prizm 7 Software, Inc. for Windows.
Activation of the OX1R is a critical component of CO2-mediated anxiety and hypertension ([Johnson et al., 2012a]). Exposing rats to higher concentrations of hypercarbic gas (e.g., 20% CO2) depolarizes OX neurons by interacting with pH/ CO2 chemosensitive K^+ channels ([Williams et al., 2007]), and also causes subsequent release of orexin at post-synaptic targets in the brain and spinal cord to mobilize anxiety-like behavior, hypertension, and increases ventilatory responses ([Johnson et al., 2012c], [2015]). JNJ-54717793 was tested in a rat model of CO2-induced panic.

## O=C(c1cccc(F)c1-c1ncccn1)N1[C@@H]2CC[C@H]1[C@H](Nc1cnc(C(F)(F)F)cn1)C2 [JNJ-54717793, (1S,2R,4R)-7-([(3-fluoro-2-pyrimidin-2-ylphenyl)carbonyl]-N-[5-(trifluoromethyl)pyrazin-2-yl]-7-azabicyclo[2.2.1]heptan-2-amine)]
[1]; 30 mg/kg oral, after the first 6 h
  level of OX1R occupancy: negligible
[1]; 30 mg/kg oral, first 6 h, read-out: level of OX1R occupancy
  receptor occupancy at 30 mg/kg: > 58%
[1]; 30 mg/kg oral, observed at 15 min, read-out: maximal OX1R occupancy
  receptor occupancy at 30 mg/kg: 87 ± 3%
[1]; oral, 60 min after treatment
  ED50: 1.3 mg/kg
[1]; oral, reached at 3 mg/kg, 60 min after treatment, read-out: plateau for maximal OX1R occupancy
  receptor occupancy at 3 mg/kg: 80 to 90%
[2]; 1.3 mg/kg, oral, 95% confidence interval 26 to 277 ng/ml, read-out: plasma exposure corresponding to ED50
  concentration at 60 min: 84 ng/mL
[2]; 3 mg/kg oral, read-out: plasma concentration at plateau of occupancy
  concentration at 60 min: ~311 ng/mL
[2]; 30 mg/kg oral, 15 min, read-out: plasma concentration at maximal OX1R occupancy
  concentration at 15 min: 3730 ± 440 ng/mL
Human OX1R
  Kb: 16.6 nM
Sprague-Dawley rats; rats, 3 mg/kg p.o.
  CO2-induced pressor responses (MAP): at one time point
Sprague-Dawley rats; rats, 30 mg/kg p.o.
  CO2-induced pressor responses (MAP): attenuated CO2-induced pressor responses at multiple time points
Sprague-Dawley rats; rats, 3, 10, 30 mg/kg p.o.
  increases in locomotor activity post CO2: no effect
Sprague-Dawley rats; rats, 10 and 30 mg/kg p.o.
  CO2-induced bradycardia responses (HR): attenuated CO2-induced bradycardia responses at multiple time points
Sprague-Dawley rats; rats, after CO2 challenge
  center or middle times in the open field test: Nor was there an effect
  sedative effects (line crossings) in the open field test: no apparent sedative effects
Sprague-Dawley rats; rats, highest dose (30 mg/kg p.o.)
  CO2-induced anxiety behavior in the SI test: attenuated/blocked
